Tests used:
[1] = system: HFD-fed rats injected with streptozotocin (STZ) to induce type 2 diabetes (T2DM); experiment: Study 3 (BVISIV Study): HFD plus STZ type 2 diabetes rats, 200 mg/kg/day; type: in vivo
[2] = has been reported; model of accelerated aging; cited from earlier work

## O=C[C@H](O)[C@@H](O)[C@@H](O)[C@H](O)C(=O)O [BVISIV 4, Galacturonic Acid]
[1]; end of 6 weeks
  lowering of glucose serum levels vs Group 2: most effective

## O=C[C@H](O)[C@@H](O)[C@@H](O)[C@H](O)CO [BVISIV 5, Galactose]
[1]; HFD/T2DM rats
  reduction of serum ALT levels: effective
  reduction of serum LDL cholesterol levels: effective
  reduction of serum triglyceride levels: effective
[2]
  aging effect (cognitive and motor skills): deterioration of cognitive and motor skills

## O=C[C@@H](O)[C@H](O)[C@H](O)CO [BVISIV 6, Arabinose]
[1]; HFD/T2DM rats
  comparative performance among formulations (triglycerides, LDL cholesterol, ALT): did not perform as well as the other formulations

Source: US20180256616A1, “Compounds, Compositions and Methods for Prevention or Treatment of Liver and Lipid-Related Conditions” (Sivanaray, Inc., priority 2015, published 2018)
